{"source": "patent US10112929B2", "about": "“Lactams as inhibitors of rock” (BRISTOL-MYERS SQUIBB COMPANY, priority 2015, dated 2018)", "note": "Where a name gives a salt, the structure may show the parent alone.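 Further: rho kinase enzyme reaction halted with EDTA, phospho- and non-phospho peptide separated for read-out, kinase activity inhibition derived across a dose-response series, DMSO under 2%.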", "data": [{"molecular_target": "ROCK2 (Homo sapiens (Human), UniProt O75116)", "sequence (O75116 whole entry, species assumed)": "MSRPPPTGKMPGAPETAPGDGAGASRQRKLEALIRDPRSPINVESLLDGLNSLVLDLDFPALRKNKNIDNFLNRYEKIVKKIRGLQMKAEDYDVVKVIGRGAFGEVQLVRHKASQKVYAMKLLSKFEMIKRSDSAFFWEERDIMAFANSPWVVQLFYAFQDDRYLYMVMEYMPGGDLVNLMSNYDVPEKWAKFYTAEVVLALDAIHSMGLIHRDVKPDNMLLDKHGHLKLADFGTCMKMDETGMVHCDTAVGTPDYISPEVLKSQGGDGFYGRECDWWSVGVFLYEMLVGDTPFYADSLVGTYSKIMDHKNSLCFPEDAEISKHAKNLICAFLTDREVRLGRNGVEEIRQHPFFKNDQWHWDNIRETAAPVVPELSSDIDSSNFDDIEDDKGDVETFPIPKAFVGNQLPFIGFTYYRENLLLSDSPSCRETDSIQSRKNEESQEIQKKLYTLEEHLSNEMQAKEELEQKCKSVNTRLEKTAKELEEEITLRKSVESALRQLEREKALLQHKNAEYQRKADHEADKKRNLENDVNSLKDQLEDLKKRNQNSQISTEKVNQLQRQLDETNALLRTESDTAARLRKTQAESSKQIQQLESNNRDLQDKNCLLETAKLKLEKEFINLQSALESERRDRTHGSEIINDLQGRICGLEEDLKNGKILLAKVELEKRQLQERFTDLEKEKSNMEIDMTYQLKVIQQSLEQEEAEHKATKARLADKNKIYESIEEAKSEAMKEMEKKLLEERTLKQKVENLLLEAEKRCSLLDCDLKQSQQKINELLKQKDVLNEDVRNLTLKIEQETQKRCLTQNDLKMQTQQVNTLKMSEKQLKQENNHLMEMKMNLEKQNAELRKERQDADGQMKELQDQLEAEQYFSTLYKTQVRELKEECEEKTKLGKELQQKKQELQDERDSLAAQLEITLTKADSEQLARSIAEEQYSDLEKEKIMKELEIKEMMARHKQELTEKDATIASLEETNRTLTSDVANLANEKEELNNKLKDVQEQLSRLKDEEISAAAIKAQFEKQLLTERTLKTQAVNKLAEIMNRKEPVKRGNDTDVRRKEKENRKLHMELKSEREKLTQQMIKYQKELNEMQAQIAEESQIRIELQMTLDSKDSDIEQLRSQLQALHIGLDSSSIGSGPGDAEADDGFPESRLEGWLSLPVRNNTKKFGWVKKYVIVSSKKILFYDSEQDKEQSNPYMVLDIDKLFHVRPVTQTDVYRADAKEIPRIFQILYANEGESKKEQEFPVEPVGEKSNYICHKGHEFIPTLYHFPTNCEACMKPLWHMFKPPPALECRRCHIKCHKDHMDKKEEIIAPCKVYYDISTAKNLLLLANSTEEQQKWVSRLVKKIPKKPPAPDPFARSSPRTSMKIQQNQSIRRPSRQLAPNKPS", "assay": "biochemical", "units": {"IC50": "µM"}, "values": [{"smiles": "O=C1C(Nc2cccc(F)c2)CCN1c1ccc(-c2cn[nH]c2)cc1", "note": "(stereo not drawn) [Example 62, 1-(4-(1H-pyrazol-4-yl)phenyl)-3-((3-fluorophenyl)amino)pyrrolidin-2-one]", "IC50": "< 0.01"}, {"smiles": "COc1ccc(N[C@@H]2CCN(c3ccc(-c4cn[nH]c4)cc3)C2=O)cc1OC", "note": "[Example 389, (R)-1-(4-(1H-pyrazol-4-yl)phenyl)-3-((3,4-dimethoxyphenyl)amino)pyrrolidin-2-one]", "IC50": "0.1 to 2.2"}, {"smiles": "COc1nc(N2CCC(N3CCC(F)CC3)C2=O)ccc1-c1cn[nH]c1", "note": "(racemic) [Example 296, 3-(4-fluoropiperidin-1-yl)-1-(6-methoxy-5-(1H-pyrazol-4-yl)pyridin-2-yl)pyrrolidin-2-one hydrochloride]", "IC50": "0.01 to 0.1"}, {"smiles": "CCc1cc(N2CCC(Nc3ccc(F)c(OC)c3)C2=O)ccc1-c1cn[nH]c1", "note": "(single isomer, unassigned) [Example 241, 1-(3-ethyl-4-(1H-pyrazol-4-yl)phenyl)-3-((4-fluoro-3-methoxyphenyl)amino) pyrrolidin-2-one]", "IC50": "0.01 to 0.1"}, {"smiles": "COc1nc(N2CCC(N3CCN(S(C)(=O)=O)CC3)C2=O)ccc1-c1cn[nH]c1", "note": "(racemic) [Example 286, 1-(6-methoxy-5-(1H-pyrazol-4-yl)pyridin-2-yl)-3-(4-(methylsulfonyl)piperazin-1-yl)pyrrolidin-2-one]", "IC50": "0.1 to 2.2"}, {"smiles": "COc1cccc(OC2CCN(c3ccc(-c4ccc5[nH]ncc5c4)c(OC)n3)C2=O)c1", "note": "(single isomer, unassigned) [Example 123, 1-(5-(1H-indazol-5-yl)-6-methoxypyridin-2-yl)-3-(3-methoxyphenoxy)pyrrolidin-2-one]", "IC50": "0.1 to 2.2"}, {"smiles": "CCc1nc(N2CCC(Nc3ccc(F)c(OCC4CC4)c3)C2=O)ccc1-c1cn[nH]c1", "note": "(single isomer, unassigned) [Example 211, 3-((3-(cyclopropylmelhoxy)-4-fluorophenyl)amino)-1-(6-ethyl-5-(1H-pyrazol-4-yl)pyridin-2-yl)pyrrolidin-2-one]", "IC50": "0.01 to 0.1"}, {"smiles": "COc1cccc(NC2CCN(c3ccc(-c4cn[nH]c4)c(C(O)C(F)(F)F)c3)C2=O)c1", "note": "(racemic) [Example 348, 1-(4-(1H-pyrazol-4-yl)-3-(2,2,2-trifluoro-1-hydroxyethyl)phenyl)-3-((3-methoxyphenyl)amino)pyrrolidin-2-one]", "IC50": "0.1 to 2.2"}, {"smiles": "COc1cc(NC2CCN(c3ccc(-c4cn[nH]c4)c(F)c3F)C2=O)ccc1F", "note": "(single isomer, unassigned) [Example 307, 1-(2,3-difluoro-4-(1H-pyrazol-4-yl)phenyl)-3-((4-fluoro-3-methoxyphenyl)amino)pyrrolidin-2-one]", "IC50": "0.01 to 0.1"}, {"smiles": "CCOc1cccc(NC2CCN(c3ccc(-c4cn[nH]c4)c(OC)n3)C2=O)c1", "note": "(single isomer, unassigned) [Example 218, 3-((3-ethoxyphenyl)amino)-1-(6-methoxy-5-(1H-pyrazol-4-yl)pyridin-2-yl)pyrrolidin-2-one]", "IC50": "< 0.01"}, {"smiles": "COc1cccc(NC2CCN(c3cc(F)c(-c4cn[nH]c4)cc3F)C2=O)c1", "note": "(single isomer, unassigned) [Example 353, 1-(2,5-difluoro-4-(1H-pyrazol-4-yl)phenyl)-3-((3-methoxyphenyl)amino)pyrrolidin-2-one]", "IC50": "0.01 to 0.1"}, {"smiles": "COc1ccc(F)c(OC2CCN(c3ccc(-c4cn[nH]c4)cc3)C2=O)c1", "note": "(stereo not drawn) [Example 111, 1-(4-(1H-pyrazol-4-yl)phenyl)-3-(2-fluoro-5-methoxyphenoxy)pyrrolidin-2-one]", "IC50": "0.01 to 0.1"}, {"smiles": "COc1cc(F)cc(NC2CCN(c3ccc(-c4cn[nH]c4)cn3)C2=O)c1", "note": "(stereo not drawn) [Example 82, 1-(5-(1H-pyrazol-4-yl)pyridin-2-yl)-3-((3-fluoro-5-methoxyphenyl)amino)pyrrolidin-2-one]", "IC50": "< 0.01"}, {"smiles": "COc1cc(F)cc(OC2CCN(c3ccc(-c4cn[nH]c4)cc3)C2=O)c1", "note": "(stereo not drawn) [Example 112, 1-(4-(1H-pyrazol-4-yl)phenyl)-3-(3-fluoro-5-methoxyphenoxy)pyrrolidin-2-one]", "IC50": "0.1 to 2.2"}, {"smiles": "COc1cccc(OC2CCN(c3ccc(-c4ccc5cn[nH]c5c4)c(OC)n3)C2=O)c1", "note": "(single isomer, unassigned) [Example 124, 1-(5-(1H-indazol-6-yl)-6-methoxypyridin-2-yl)-3-(3-methoxyphenoxy)pyrrolidin-2-one]", "IC50": "0.1 to 2.2"}, {"smiles": "COc1ccc(N2CCN(C3CCN(c4ccc(-c5cn[nH]c5)c(OC)n4)C3=O)CC2)cc1", "note": "(racemic) [Example 287, 1-(6-methoxy-5-(1H-pyrazol-4-yl)pyridin-2-yl)-3-(4-(4-methoxyphenyl)piperazin-1-yl)pyrrolidin-2-one dihydrochloride]", "IC50": "0.1 to 2.2"}, {"smiles": "COc1cccc(NC2CCN(c3ccc(-c4cn[nH]c4)cc3)C2=O)c1", "note": "(stereo not drawn) [Example 63, 1-(4-(1H-pyrazol-4-yl)phenyl)-3-((3-methoxyphenyl)amino)pyrrolidin-2-one]", "IC50": "< 0.01"}, {"smiles": "O=C1C(Nc2cccc(OC(F)F)c2)CCN1c1ccc(-c2cn[nH]c2)cn1", "note": "(single isomer, unassigned) [Example 322, 1-(5-(1H-pyrazol-4-yl)pyridin-2-yl)-3-((3-(difluoromethoxy)phenyl)amino) pyrrolidin-2-one]", "IC50": "0.01 to 0.1"}, {"smiles": "COc1cc(N2CCC(Nc3cc(F)cc(F)c3)C2=O)ccc1-c1cn[nH]c1", "note": "(single isomer, unassigned) [Example 145, 3-((3,5-difluorophenyl)amino)-1-(3-methoxy-4-(1H-pyrazol-4-yl)phenyl) pyrrolidin-2-one]", "IC50": "0.01 to 0.1"}, {"smiles": "COc1cccc(NC2CCN(c3ccc(-c4cn[nH]c4)cc3F)C2=O)c1", "note": "(single isomer, unassigned) [Example 328, 1-(2-fluoro-4-(1H-pyrazol-4-yl)phenyl)-3-((3-methoxyphenyl)amino)pyrrolidin-2-one]", "IC50": "0.01 to 0.1"}, {"smiles": "COc1cc(F)cc(NC2CCN(c3ccc(-c4cn[nH]c4)c(C#N)c3)C2=O)c1", "note": "(single isomer, unassigned) [Example 375, 5-(3-((3-fluoro-5-methoxyphenyl)amino)-2-oxopyrrolidin-1-yl)-2-(1H-pyrazol-4-yl)benzonitrile]", "IC50": "0.01 to 0.1"}, {"smiles": "N#Cc1ccnc(NC2CCN(c3ccc(-c4cn[nH]c4)cc3)C2=O)c1", "note": "(stereo not drawn) [Example 116, 2-((1-(4-(1H-Pyrazol-4-yl)phenyl)-2-oxopyrrolidin-3-yl)amino)isonicotinonitrile]", "IC50": "0.01 to 0.1"}, {"smiles": "COc1cccc(NC2CCN(c3ccc(-c4cn[nH]c4)cc3)C2=O)c1", "note": "(single isomer, unassigned) [Example 28, 1-(4-(1H-pyrazol-4-yl)phenyl)-3-((3-methoxyphenyl)amino)pyrrolidin-2-one]", "IC50": "< 0.01"}, {"smiles": "COc1ccc(NC2CCN(c3ccc(-c4cn[nH]c4)cc3F)C2=O)cc1F", "note": "(single isomer, unassigned) [Example 344, 1-(2-fluoro-4-(1H-pyrazol-4-yl)phenyl)-3-((3-fluoro-4-methoxyphenyl)amino) pyrrolidin-2-one]", "IC50": "0.1 to 2.2"}, {"smiles": "O=C1C(Nc2cccc(OCC3CC3)c2)CCN1c1ccc(-c2cn[nH]c2)c(F)c1", "note": "(single isomer, unassigned) [Example 362, 3-((3-(cyclopropylmethoxy)phenyl)amino)-1-(3-fluoro-4-(1H-pyrazol-4-yl)phenyl)pyrrolidin-2-one]", "IC50": "0.01 to 0.1"}, {"smiles": "COc1cc(F)cc(NC2CCN(c3ccc(-c4cn[nH]c4)c(OC)c3)C2=O)c1", "note": "(single isomer, unassigned) [Example 137, 3-((3-fluoro-5-methoxyphenyl)amino)-1-(3-methoxy-4-(1H-pyrazol-4-yl)phenyl) pyrrolidin-2-one]", "IC50": "< 0.01"}, {"smiles": "COc1ccc(NC2CCN(c3ccc(-c4cn[nH]c4)c(OC)c3)C2=O)c(F)c1", "note": "(single isomer, unassigned) [Example 152, 3-((2-fluoro-4-methoxyphenyl)amino)-1-(3-methoxy-4-(1H-pyrazol-4-yl)phenyl) pyrrolidin-2-one]", "IC50": "0.1 to 2.2"}, {"smiles": "COc1c(F)cccc1NC1CCN(c2ccc(-c3cn[nH]c3)cc2F)C1=O", "note": "(single isomer, unassigned) [Example 342, 3-((3-fluoro-2-methoxyphenyl)amino)-1-(2-fluoro-4-(1H-pyrazol-4-yl)phenyl) pyrrolidin-2-one]", "IC50": "0.1 to 2.2"}, {"smiles": "O=C1C(NCCc2ccccc2)CCN1c1ccc(-c2cn[nH]c2)cc1", "note": "(stereo not drawn) [Example 59, 1-(4-(1H-pyrazol-4-yl)phenyl)-3-(phenethylamino)pyrrolidin-2-one, 2 TFA]", "IC50": "0.1 to 2.2"}, {"smiles": "COc1cccc(NC2CCN(c3ccc(-c4cn[nH]c4)cc3)C2=O)c1C", "note": "(single isomer, unassigned) [Example 325, 1-(4-(1H-pyrazol-4-yl)phenyl)-3-((3-methoxy-2-methylphenyl)amino) pyrrolidin-2-one]", "IC50": "0.01 to 0.1"}, {"smiles": "COc1ccc(NC2CCN(c3ccc(-c4cn[nH]c4)c(Cl)c3)C2=O)cc1F", "note": "(single isomer, unassigned) [Example 156, 1-(3-chloro-4-(1H-pyrazol-4-yl)phenyl)-3 ((3-fluoro-4-methoxyphenyl)amino) pyrrolidin-2-one]", "IC50": "0.1 to 2.2"}, {"smiles": "COc1cc(F)cc(NC2CCN(c3ccc(-c4cn[nH]c4)nc3)C2=O)c1", "note": "(single isomer, unassigned) [Example 301, 1-(6-(1H-pyrazol-4-yl)pyridin-3-yl)-3-((3-fluoro-5-methoxyphenyl)amino)pyrrolidin-2-one]", "IC50": "0.01 to 0.1"}, {"smiles": "COc1cc(N2CCC(Nc3cccc(F)c3OC)C2=O)ccc1-c1cn[nH]c1", "note": "(single isomer, unassigned) [Example 151, 3-((3-fluoro-2-methoxyphenyl)amino)-1-(3-methoxy-4-(1H-pyrazol-4-yl)phenyl) pyrrolidin-2-one]", "IC50": "< 0.01"}, {"smiles": "O=C1C(Nc2cccc(OC(F)F)c2)CCN1c1ccc(-c2cn[nH]c2)cc1", "note": "(single isomer, unassigned) [Example 231, 1-(4-(1H-pyrazol-4-yl)phenyl)-3-((3-(difluoromethoxy)phenyl)amino) pyrrolidin-2-one]", "IC50": "0.01 to 0.1"}, {"smiles": "Cc1nc2ccc(NC3CCN(c4ccc(-c5cn[nH]c5)cc4)C3=O)cc2s1", "note": "(stereo not drawn) [Example 115, 1-(4-(1H-pyrazol-4-yl)phenyl)-3-((2-methylbenzo[d]thiazol-6-yl)amino)pyrrolidin-2-one]", "IC50": "0.1 to 2.2"}, {"smiles": "COc1cccc(NC2CCN(c3ccc(-c4cn[nH]c4)c(OC)c3)C2=O)c1", "note": "(stereo not drawn) [Example 68, 1-(3-methoxy-4-(1H-pyrazol-4-yl)phenyl)-3-((3-methoxyphenyl)amino)pyrrolidin-2-one]", "IC50": "< 0.01"}]}]}
